Test results from article PMC6583964, “Identification and functional characterization of D-fructose receptor in an egg parasitoid, Trichogramma chilonis” (PLoS ONE, 2019).

Tests used:
TchiGR43a [1] = biological target: T1, TchiGR43a (Trichogramma chilonis, UniProt A0A481RL18); test: two-electrode voltage-clamp of Xenopus oocytes expressing TchiGR43a, dose-response; type: cell-based
T1 construct: full-length open reading frame (549 amino acid residues), expressed in Xenopus laevis oocytes
T1 sequence (A0A481RL18 1-549): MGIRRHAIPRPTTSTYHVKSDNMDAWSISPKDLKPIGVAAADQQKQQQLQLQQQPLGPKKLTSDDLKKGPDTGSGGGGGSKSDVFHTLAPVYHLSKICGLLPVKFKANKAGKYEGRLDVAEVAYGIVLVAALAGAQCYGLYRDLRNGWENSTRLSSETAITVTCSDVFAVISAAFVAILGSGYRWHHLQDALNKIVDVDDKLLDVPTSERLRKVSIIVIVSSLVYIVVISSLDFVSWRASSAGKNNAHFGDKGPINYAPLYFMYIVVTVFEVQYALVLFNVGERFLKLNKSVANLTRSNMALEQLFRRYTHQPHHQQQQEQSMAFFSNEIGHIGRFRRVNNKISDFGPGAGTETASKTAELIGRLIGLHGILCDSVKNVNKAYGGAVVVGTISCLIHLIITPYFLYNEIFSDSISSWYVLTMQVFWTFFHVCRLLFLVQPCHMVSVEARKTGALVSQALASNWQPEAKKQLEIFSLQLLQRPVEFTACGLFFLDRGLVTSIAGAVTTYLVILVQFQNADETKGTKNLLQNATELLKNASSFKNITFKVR

TchiGR43a [2] = biological target: T1, TchiGR43a; test: two-electrode voltage-clamp of Xenopus oocytes expressing TchiGR43a, single concentration […] (weaker response than D-fructose); type: cell-based

O=C(CO)[C@@H](O)[C@H](O)[C@H](O)CO [D-fructose]
EC50 (TchiGR43a [1]): 23 mM

O[C@H]1[C@H](O)[C@@H](O)[C@H](O)[C@@H](O)[C@H]1O [myo-inositol]
two-electrode voltage-clamp of Xenopus oocytes expressing TchiGR43a, single conc (TchiGR43a [2]): the oocytes expressing TchiGR43a showed responses to D-fructose and myo-inositol
